What follows are molecules tested against T1, carboxypeptidase U (Homo sapiens, UniProt Q96IY4) (assay: carboxypeptidase U inhibition assay (Hendriks et al., Clinical Chemistry 31, 1936-1939 (1985))). Details: assay of Hendriks, Scharpé and van Sande.
T1 sequence (Q96IY4 115-423): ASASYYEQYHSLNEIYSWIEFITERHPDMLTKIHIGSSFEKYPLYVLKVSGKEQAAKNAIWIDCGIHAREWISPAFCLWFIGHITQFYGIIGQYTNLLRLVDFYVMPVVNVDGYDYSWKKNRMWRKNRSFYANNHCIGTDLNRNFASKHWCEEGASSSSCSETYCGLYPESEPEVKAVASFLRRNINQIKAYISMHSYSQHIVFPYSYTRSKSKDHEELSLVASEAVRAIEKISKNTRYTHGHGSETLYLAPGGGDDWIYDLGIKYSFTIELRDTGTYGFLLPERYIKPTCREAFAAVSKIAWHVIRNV
Format: biochemical
Source text: The inhibiting effect of the compounds of the present invention was estimated using the assay described in: Dirk Hendriks, Simon Scharpé and Marc van Sande, Clinical Chemistry, 31, 1936-1939 (1985); and Wei Wang, Dirk F. Hendriks, Simon S. Scharpé, The Journal of Biological Chemistry, 269, 15937-15944 (1994).
The activities of certain Examples in the assay described in: Dirk Hendriks, Simon Scharpé and Marc van Sande, Clinical Chemistry, 31, 1936-1939 (1985) are presented in Table I below.

Row | IC50 | Compound
1 | 4000 nM | O=C(O)C(CC1C2CCC1CNC2)C(S)CCc1ccccc1 (stereo not shown) [Example 25, 2-(3-Azabicyclo[3.2.1]oct-8-ylmethyl)-3-mercapto-5-phenylpentanoic acid]
2 | 600 nM | Nc1ccc(CC(C(=O)O)C(S)CCc2cccc(C(=O)NCCF)c2)cn1 (stereo not shown) [Example 33, 2-[(6-Aminopyridin-3-yl)methyl]-5-(3-{[(2-fluoroethyl)amino]carbonyl}phenyl)-3-mercaptopentanoic acid]
3 | 1000 nM | Nc1ccc(CC(C(=O)O)C(S)CCC2CCCS2)cn1 (stereo not shown) [Example 18, 2-[(6-Aminopyridin-3-yl)methyl]-3-mercapto-5-(tetrahydro-2-thienyl)pentanoic acid]
4 | 600 nM | Nc1ccc(CC(C(=O)O)C(S)CCc2cccc(C(=O)OCCc3c(Cl)cccc3Cl)c2)cn1 (stereo not shown) [Example 31, 2-[(6-Aminopyridin-3-yl)methyl]-5-(3-{[2-(2,6-dichlorophenyl)ethoxy]carbonyl}phenyl)-3-mercaptopentanoic acid]
5 | 800 nM | N#CCc1ccc(CCC(S)C(Cc2ccc(N)nc2)C(=O)O)cc1 (stereo not shown) [Example 11, 2-[(6-Aminopyridin-3-yl)methyl]-5-[4-(cyanomethyl)phenyl]-3-mercaptopentanoic acid]
6 | 6300 nM | Nc1ncc(CC(C(=O)O)C(S)CCc2ccccc2)s1 (stereo not shown) [Example 24, 2-[(2-Amino-1,3-thiazol-5-yl)methyl]-3-mercapto-5-phenylpentanoic acid]
7 | 2000 nM | CCOC(=O)C1CCN(C(=O)c2cccc(CCC(S)C(Cc3ccc(N)nc3)C(=O)O)c2)CC1 (stereo not shown) [Example 43, 2-[(6-Aminopyridin-3-yl)methyl]-5-(3-{[4-(ethoxycarbonyl)piperidin-1-yl]carbonyl}phenyl)-3-mercaptopentanoic acid]
8 | 800 nM | Nc1ccc(CC(C(=O)O)C(S)CCc2cccc(C(=O)N3CCc4ccccc4C3)c2)cn1 (stereo not shown) [Example 28, 2-[(6-Aminopyridin-3-yl)methyl]-5-[3-(3,4-dihydroisoquinolin-2(1H)-ylcarbonyl)phenyl]-3-mercaptopentanoic acid]
9 | 1000 nM | CN(CC#N)S(=O)(=O)c1cccc(CCC(S)C(Cc2ccc(N)nc2)C(=O)O)c1 (stereo not shown) [Example 47, 2-[(6-Aminopyridin-3-yl)methyl]-5-(3-{[(cyanomethyl)(methyl)amino]-sulfonyl}phenyl)-3-mercaptopentanoic acid]
10 | 600 nM | Nc1ccc(CC(C(=O)O)C(S)CCc2cccc(C(=O)N3CCCC3)c2)cn1 (stereo not shown) [Example 42, 2-[(6-Aminopyridin-3-yl)methyl]-3-mercapto-5-[3-(pyrrolidin-1-ylcarbonyl)phenyl]pentanoic acid]
11 | 600 nM | CN(Cc1ccccc1)C(=O)c1cccc(CCC(S)C(Cc2ccc(N)nc2)C(=O)O)c1 (stereo not shown) [Example 41]
12 | 800 nM | Nc1ccc(CC(C(=O)O)C(S)CCc2ccc3c(c2)OCO3)cn1 (stereo not shown) [Example 7, 2-[(6-Aminopyridin-3-yl)methyl]-5-(1,3-benzodioxol-5-yl)-3-mercaptopentanoic acid]
13 | 800 nM | Nc1ccc(CC(C(=O)O)C(S)CCc2cccc(Cl)c2)cn1 (stereo not shown) [Example 6, 2-[(6-Aminopyridin-3-yl)methyl]-5-(3-chlorophenyl)-3-mercaptopentanoic acid]

Reference: patent US7572817B2, “2,5-disubstituted 3-mercaptopentanoic acid” (AstraZeneca AB, priority 2002, dated 2009)
